Laboratory results taken from US4965352A, “Anthracycline derivatives having cytostatic activity” (Behringwerke Aktiengesellschaft, priority 1986, dated 1990).
Values after ≈ are worked out from the molar mass of the structure shown.

Experiments:
[1] = Acute toxicity in NMRI mice after intravenous injection; details: mouse, in vivo, survival on day 14, Litchfield-Wilcoxon
Procedure: Details of the test method are evident from the procecdure for determining the formation of colonies given herein after. Appropriate tests on NMRI mice were carried out to determine the acute toxicity of the anthracycline derivatives according to the invention. Details of the test method are evident from the procedure for determining the acute toxicity given hereinafter.
Determination of the acute toxicity entailed intravenous injection of various doses of the test substance, disolved in 0.5 ml of physiological saline solution, in NMRI mice on day 0. Control groups received only 0.5 ml of physiological saline solution. 5 mice were used for each concentration of the test substance. The number of surviving mice was determined on day 14, and the LD50 was determined therefrom by the Litchfield-Wilcoxon method. The toxicity of the compounds described here is compiled in Table 1, comparing with adriamycin.

[2] = tested on: mouse L1210 leukemia cells; test: Formation of L1210 leukemia cell colonies in soft agar; format: cell-based; details: for IC50: Mus musculus, L1210, 168 h, read-out: Cytotoxicity (continuous incubation) IC50; for cytostatic activity compared with adriamycin: result in words, test not named
Procedure: The cytostatic activity of the compounds according to the invention has been tested using mouse L1210 leukemia cells. Use was made for this of the formation of L1210 leukemia cell colonies in soft agar. This method is used to detect the effect of the test substances on the growth behavior of the cells over several generations. In this connection, with a cell cycle time of 10 to 12 hours, about 14 consecutive generations are observed in the 7-day duration of the test. In this test, the substances having cytostatic activity according to the invention bring about a reduction, compared with an untreated control sample, in the number of colonies which is to be observed.
500 leukemia cells per plate were incubated with various concentrations of the test substance at 37° C. for 1 hour. The cells were then washed twice with McCoy 5A medium, 0.3% agar was added, and finally the mixture was poured into Petri dishes. Controls were incubated only with fresh medium. In place of the incubation for one hour, in some cases various concentrations and test substances were mixed with the upper agar layer in order in this way to achieve continuous exposure of the cells throughout the incubation time. After the agar had solidified, the plates were incubated in an incubator at 37° C. for 7 days (5% by volume CO2, 95% relative atmospheric humidity). Thereafter the number of colonies with a diameter of more than 60μ which had formed was counted. The results have been stated as the number of colonies in treated agar plates as a percentage of the untreated control. The dose-effect graph obtained in this way was used to determine the IC50 as a measure of the activity of the substance. The results for the compounds described here are compiled in Table 1, comparing with adriamycin.

| SMILES | LD50 at 336 h [1] | IC50 [2] | cytostatic activity compared with adriamycin [2] |
| --- | --- | --- | --- |
| CC[C@@]1(O)C[C@H](O[C@H]2C[C@H](N(C)C)[C@H](O)[C@H](C)O2)c2c(O)c3c(c(O)c2[C@H]1C(=O)OC)C(=O)c1c(O)ccc(O)c1C3=O [Compound 2, 7-O-(α-L-rhodosaminyl)-ε-isorhodomycinone] | 50 to 100 mg/kg | 0.035 µg/mL (≈ 0.0582 µM) | comparable with that of adriamycin |
| CC[C@@]1(O)C[C@H](O[C@H]2C[C@H](NC)[C@H](OC(C)=O)[C@H](C)O2)c2c(O)c3c(c(O)c2[C@H]1C(=O)OC)C(=O)c1c(O)ccc(O)c1C3=O [Compound 8, 7-O-(4'-O-acetyl-3'-N-methyl-α-L-daunosaminyl)-ε-isorhodomycinone] |  | 0.1 µg/mL (≈ 0.159 µM) |  |
| COc1cccc2c1C(=O)c1c(O)c3c(c(O)c1C2=O)C[C@@](O)(C(=O)CO)C[C@@H]3O[C@H]1C[C@H](N)[C@H](O)[C@H](C)O1 [Adriamycin, reference compound] | 26.5 mg/kg | 0.02 µg/mL (≈ 0.0368 µM) |  |
| CC[C@@]1(O)C[C@H](O[C@H]2C[C@H](NC)[C@H](O)[C@H](C)O2)c2c(O)c3c(c(O)c2[C@H]1C(=O)OC)C(=O)c1c(O)ccc(O)c1C3=O [Compound 9, 7-O-(3'-N-methyl--L-daunosaminyl)-ε-isorhodomycinone] |  | 0.028 µg/mL (≈ 0.0477 µM) |  |
| CC[C@@]1(O)C[C@H](O[C@H]2C[C@H](N(C)C)[C@H](OC(C)=O)[C@H](C)O2)c2c(O)c3c(c(O)c2[C@H]1C(=O)OC)C(=O)c1c(O)ccc(O)c1C3=O [Compound 1, 7-O-(4'-O-acetyl--L-rhodosaminyl)-ε-isorhodomycinone] | 89 mg/kg | 0.028 µg/mL (≈ 0.0435 µM) | comparable with that of adriamycin |
| CC[C@@]1(O)C[C@H](O[C@H]2C[C@H](NC(=O)C(F)(F)F)[C@H](O)[C@H](C)O2)c2c(O)c3c(c(O)c2[C@H]1C(=O)OC)C(=O)c1c(O)ccc(O)c1C3=O [Compound 5, 7-O-(3'-N-trifluoroacetyl-α-L-daunosaminyl)-ε-isorhodomycinone] |  | 0.4 µg/mL (≈ 0.597 µM) |  |
